46 sequences from the supplement of paper PMC11208160 can be followed below.
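Also: IS621 bridge recombinase in Escherichia coli cells against a fixed T5 target plasmid.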

This data set in a line: recombinant UMI read abundance after kanamycin selection (control-corrected) (log10(CPM+1)); higher = more efficient recombination; extreme values may be limits of the assay; sequences stand for … in AGTGCAGAGAAAATCGGCCAGTTTTCTCTGCCTGCAGTCCGCATGCCGTGGGACCCCTTGGGTTCTAACCTGTTGCCTAGATTTATGCAGCGGACTGCCTTTCTCCCAAAGTGATAAACCGG…AGGTTGGTTTCACT; site = the 11-nt donor. The gist of the method: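 In a pooled Escherichia coli screen for the IS621 bridge recombinase, donor and donor-binding-loop pairs were each placed with a 12-nt UMI on a plasmid bearing a promoterless kanamycin gene. This library was co-electroporated with a target plasmid encoding a fixed target and T7-inducible recombinase, and cells were plated either on IPTG (0.07 mM) plus kanamycin or without selection, in two replicates each. Recombinant UMIs were PCR-amplified across the donor–target junction and sequenced, and counts were converted to CPM, averaged over replicates, scaled by control-derived factors and reported as log10(CPM+1).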
For the sequence “TTGGAGGCATGGACCGGTTTTCCCGGTAATCCGTATTTGTG (site GTGGAGGCTCA)”, the “recombinant UMI read abundance (log10)” value amounted to 0.0131.
As for “TTGGAGGCATGGACCGGTTTTCCCGGTAATCCGTATTTGTG (site TTGGAGGCTCA)”, the figure is 0.791; as for “TTGGGGCCATGGACCGGTTTTCCCGGTAATCCGTATTTGAA (site TTGGGGCCTTT)”, 0.00375.
On to “TTGGTCACATGGACCGGTTTTCCCGGTAATCCGTATTTGAA (site TTGGTCACTTT)”, for which the “recombinant UMI read abundance (log10)” value was determined as 0.29.
For the sequence “TTGGTCCCATGGACCGGTTTTCCCGGTAATCCGTATTTGAA (site TTGGTCCCTTT)”, the “recombinant UMI read abundance (log10)” value stood at 0.00683.
In the case of “TTGGTGGCATGGACCGGTTTTCCCGGTAATCCGTATTTGGC (site TTGGTGGCTGC)”, the “recombinant UMI read abundance (log10)” value is 1.84.
Take “TTGTTGCCATGGACCGGTTTTCCCGGTAATCCGTATTTGGT (site TTGTTGCCTAC)”: the “recombinant UMI read abundance (log10)” value was found to be 0.0353.
Take “TTGTTTGCATGGACCGGTTTTCCCGGTAATCCGTATTTGAG (site TTGTTTGCTCT)”: the “recombinant UMI read abundance (log10)” value is 0.442.
As for “TTTACACCATGGACCGGTTTTCCCGGTAATCCGTATTTGAC (site TATACACCTGT)”, the figure is 0; as for “TTTACACCATGGACCGGTTTTCCCGGTAATCCGTATTTGAC (site TCTACACCTGT)”, 0; as for “TTTACACCATGGACCGGTTTTCCCGGTAATCCGTATTTGAC (site TGTACACCTGT)”, 0.
Consider “TTTACACCATGGACCGGTTTTCCCGGTAATCCGTATTTGAC (site TTTACACCTGT)”, for which the “recombinant UMI read abundance (log10)” value was determined as 0.
Regarding “TTTACCCCATGGACCGGTTTTCCCGGTAATCCGTATTTGCT (site TTTACCCCTAG)”, the “recombinant UMI read abundance (log10)” value was determined as 0.0114.
“TTTACGGCATGGACCGGTTTTCCCGGTAATCCGTATTTGCT (site TTTACGGCTAG)”: the “recombinant UMI read abundance (log10)” value was determined as 0.234.
Consider “TTTACGGCATGGACCGGTTTTCCCGGTAATCCGTATTTGCT (site TTTCCGGCTAG)”, for which the “recombinant UMI read abundance (log10)” value is 0.00939.
As for “TTTACGGCATGGACCGGTTTTCCCGGTAATCCGTATTTGCT (site TTTGCGGCTAG)”, the “recombinant UMI read abundance (log10)” value is 0.00519.
As for “TTTACGGCATGGACCGGTTTTCCCGGTAATCCGTATTTGCT (site TTTTCGGCTAG)”, the figure is 0.0523; as for “TTTAGAACATGGACCGGTTTTCCCGGTAATCCGTATTTGGC (site ATTAGAACTGC)”, 0.0159.
As to “TTTAGAACATGGACCGGTTTTCCCGGTAATCCGTATTTGGC (site CTTAGAACTGC)”, the “recombinant UMI read abundance (log10)” value is 0.
For the sequence “TTTAGAACATGGACCGGTTTTCCCGGTAATCCGTATTTGGC (site GTTAGAACTGC)”, the “recombinant UMI read abundance (log10)” value came to 0.
To “TTTAGAACATGGACCGGTTTTCCCGGTAATCCGTATTTGGC (site TTTAGAACTGC)” belongs 0.
As for “TTTAGAGCATGGACCGGTTTTCCCGGTAATCCGTATTTGTT (site TTTAGAGCTAA)”, the “recombinant UMI read abundance (log10)” value was 0.975.
With “TTTAGCTCATGGACCGGTTTTCCCGGTAATCCGTATTTGTT (site TTTAGCTCTAA)”, the “recombinant UMI read abundance (log10)” value was found to be 0.0116.
Regarding “TTTCAAACATGGACCGGTTTTCCCGGTAATCCGTATTTGTG (site TTTCAAACTCA)”, the “recombinant UMI read abundance (log10)” value was 0.0135.
Turning to “TTTCACCCATGGACCGGTTTTCCCGGTAATCCGTATTTGGG (site TTTCACCCTCC)”, the “recombinant UMI read abundance (log10)” value amounted to 0.00832.
“TTTCACTCATGGACCGGTTTTCCCGGTAATCCGTATTTGGT (site TTTCACTCTAC)”: the “recombinant UMI read abundance (log10)” value came out at 0.00742.
Regarding “TTTCCGACATGGACCGGTTTTCCCGGTAATCCGTATTTGTA (site TTTCCGACTTA)”, the “recombinant UMI read abundance (log10)” value was 0.018.
As for “TTTCTACCATGGACCGGTTTTCCCGGTAATCCGTATTTGGG (site TTTCTACCTCC)”, the figure is 0.00805.
Turning to “TTTCTAGCATGGACCGGTTTTCCCGGTAATCCGTATTTGTA (site TTTCTAGCTTA)”, the “recombinant UMI read abundance (log10)” value amounted to 0.542.
Turning to “TTTCTCTCATGGACCGGTTTTCCCGGTAATCCGTATTTGTA (site ATTCTCTCTTA)”, the “recombinant UMI read abundance (log10)” value was 0.353.
“TTTCTCTCATGGACCGGTTTTCCCGGTAATCCGTATTTGTA (site CTTCTCTCTTA)”: the “recombinant UMI read abundance (log10)” value turned out to be 0.301.
“TTTCTCTCATGGACCGGTTTTCCCGGTAATCCGTATTTGTA (site GTTCTCTCTTA)”: the “recombinant UMI read abundance (log10)” value stood at 0.297.
“TTTCTCTCATGGACCGGTTTTCCCGGTAATCCGTATTTGTA (site TTTCTCTCTTA)”: the “recombinant UMI read abundance (log10)” value stood at 0.571.
As for “TTTCTGACATGGACCGGTTTTCCCGGTAATCCGTATTTGCC (site TTTCTGACTGG)”, the figure is 0; as for “TTTGAGACATGGACCGGTTTTCCCGGTAATCCGTATTTGGA (site TTTGAGACTTC)”, 0.832.
To “TTTGCCGCATGGACCGGTTTTCCCGGTAATCCGTATTTGCT (site TTTGCAGCTAG)” belongs 0.0102; to “TTTGCCGCATGGACCGGTTTTCCCGGTAATCCGTATTTGCT (site TTTGCCGCTAG)”, 0.548; to “TTTGCCGCATGGACCGGTTTTCCCGGTAATCCGTATTTGCT (site TTTGCGGCTAG)”, 0.00684.
For “TTTGCCGCATGGACCGGTTTTCCCGGTAATCCGTATTTGCT (site TTTGCTGCTAG)”, the “recombinant UMI read abundance (log10)” value is 0.
“TTTGGCGCATGGACCGGTTTTCCCGGTAATCCGTATTTGAG (site TTTGGCGCTCT)”: the “recombinant UMI read abundance (log10)” value is 0.115.
Take “TTTGGGGCATGGACCGGTTTTCCCGGTAATCCGTATTTGAC (site TTTGGGGCTGT)”: the “recombinant UMI read abundance (log10)” value is 1.57.
In the case of “TTTGTTACATGGACCGGTTTTCCCGGTAATCCGTATTTGCC (site TTTGTTACTGG)”, the “recombinant UMI read abundance (log10)” value was determined as 0.44.
On to “TTTTTGGCATGGACCGGTTTTCCCGGTAATCCGTATTTGTG (site TATTTGGCTCA)”, for which the “recombinant UMI read abundance (log10)” value was found to be 0.0105.
For the sequence “TTTTTGGCATGGACCGGTTTTCCCGGTAATCCGTATTTGTG (site TCTTTGGCTCA)”, the “recombinant UMI read abundance (log10)” value came to 0.0102.
As for “TTTTTGGCATGGACCGGTTTTCCCGGTAATCCGTATTTGTG (site TGTTTGGCTCA)”, the figure is 0.0296; as for “TTTTTGGCATGGACCGGTTTTCCCGGTAATCCGTATTTGTG (site TTTTTGGCTCA)”, 0.00438.
